In patent US20150344457A1, “METHODS OF INHIBITING PRMT5” (EPIZYME, INC., priority 2012, published 2015) one finds IC50 data, which are given here for 58 molecules.

In the first experiment the target is T1, PRMT5/MEP50 (Homo sapiens, UniProt O14744).
T1 construct: Expressed full-length human Flag-PRMT5/6His-MeP50 protein complex was purified; made in house; host or cells: Spodoptera frugiperda (SF9) insect cells, baculovirus (pDEST8)
T1 sequence (O14744 with tags, fused parts or gaps): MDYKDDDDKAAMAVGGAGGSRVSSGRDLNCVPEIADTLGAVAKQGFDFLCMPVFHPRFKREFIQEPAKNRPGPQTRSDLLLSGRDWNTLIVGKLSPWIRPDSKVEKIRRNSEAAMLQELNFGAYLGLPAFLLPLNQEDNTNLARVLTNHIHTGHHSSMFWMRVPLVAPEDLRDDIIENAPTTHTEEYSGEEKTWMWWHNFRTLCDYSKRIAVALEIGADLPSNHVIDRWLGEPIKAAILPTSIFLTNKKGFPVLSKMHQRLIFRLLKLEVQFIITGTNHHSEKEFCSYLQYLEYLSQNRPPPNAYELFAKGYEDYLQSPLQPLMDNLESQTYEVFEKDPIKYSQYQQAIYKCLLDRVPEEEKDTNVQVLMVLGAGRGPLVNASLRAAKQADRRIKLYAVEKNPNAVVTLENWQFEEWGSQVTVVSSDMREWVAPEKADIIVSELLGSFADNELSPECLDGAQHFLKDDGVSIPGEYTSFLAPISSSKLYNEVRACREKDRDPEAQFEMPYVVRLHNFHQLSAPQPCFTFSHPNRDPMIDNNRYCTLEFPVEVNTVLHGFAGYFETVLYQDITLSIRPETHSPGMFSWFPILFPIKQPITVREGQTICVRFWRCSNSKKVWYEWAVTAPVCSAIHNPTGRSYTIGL
T1 sequence (Q9BQA1 with tags, fused parts or gaps partner limits assumed): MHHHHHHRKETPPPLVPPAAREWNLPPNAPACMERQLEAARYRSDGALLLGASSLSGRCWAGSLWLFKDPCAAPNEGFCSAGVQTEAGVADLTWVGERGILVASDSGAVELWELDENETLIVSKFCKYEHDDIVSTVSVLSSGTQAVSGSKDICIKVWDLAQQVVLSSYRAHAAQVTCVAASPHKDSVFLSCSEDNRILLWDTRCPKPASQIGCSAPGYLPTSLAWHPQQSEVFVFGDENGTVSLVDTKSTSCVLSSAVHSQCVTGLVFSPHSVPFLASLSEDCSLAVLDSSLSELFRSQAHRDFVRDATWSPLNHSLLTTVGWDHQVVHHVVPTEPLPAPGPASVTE
Kind of experiment: PRMT5 Biochemical Assay (PRMT5/MEP50 enzyme assay on peptide substrate, 3H-SAM Flashplate). The conditions noted are these: PRMT5 biochemical assay, Table C-2; read-out: Biochemical IC50. The source says:
S-adenosylmethionine (SAM), S-adenosylhomocysteine (SAH), bicine, KCl, Tween20, dimethylsulfoxide (DMSO), bovine skin gelatin (BSG), and Tris(2-carboxyethyl)phosphine hydrochloride solution (TCEP) were purchased from Sigma-Aldrich at the highest level of purity possible. ^3H-SAM was purchase from American Radiolabeled Chemicals with a specific activity of 80 Ci/mmol 384-well streptavidin Flashplates were purchased from PerkinElmer.
Peptide representative of human histone H4 residues 1-15 was synthesized with a C-terminal linker-affinity tag motif and a C-terminal amide cap by 21st Century Biochemicals. […] The sequence was Ac-[…][K-Biot]-amide (SEQ ID NO.:3).
Full-length human MEP50 (NM_024102) clone was amplified from a human testis cDNA library incorporating a 5′ sequence encoding a 6-histidine tag (MHHHHHH) (SEQ ID NO.:5) fused directly to Arg 2 of MEP50. The amplified genes were sublconed into pENTR/D/TEV (Life Technologies) and subsequently transferred by Gateway™ attL×attR recombination to pDEST8 baculvirus expression vector (Life Technologies).
Recombinant baculovirus and Baculovirus-Infected Insect Cells (BIIC) were generated according to Bac-to-Bac kit instructions (Life Technologies) and Wasilko, 2006, respectively. Protein over-expression was accomplished by infecting exponentially growing Spodoptera frugiperda (SF9) cell culture at 1.2×10^6 cell/ml with a 5000 fold dilution of BIIC stock. Infections were carried out at 27° C. for 72 hours, harvested by centrifugation, and stored at −80° C. for purification.
Flag-PRMT5/6His-MeP50 was eluted with 300 mM Imidazole in the same buffer. […] Reference: Wasilko, D. J. and S. E. Lee: “TIPS: titerless infected-cells preservation and scale-up” Bioprocess J., 5 (2006), pp. 29-32.
General Procedure for PRMT5/MEP50 Enzyme Assays on Peptide Substrates.
The assays were all performed in a buffer consisting of 20 mM Bicine (pH=7.6), 1 mM TCEP, 0.005% BSG, and 0.002% Tween20, prepared on the day of use. Compounds in 100% DMSO (1 ul) were spotted into a polypropylene 384-well V-bottom plates (Greiner) using a Platemate Plus outfitted with a 384-channel head (Thermo Scientific). DMSO (1 ul) was added to Columns 11, 12, 23, 24, rows A-H for the maximum signal control and 1 ul of SAH, a known product and inhibitor of PRMT5/MEP50, was added to columns 11, 12, 23, 24, rows I-P for the minimum signal control. A cocktail (40 ul) containing the PRMT5/MEP50 enzyme and the peptide was added by Multidrop Combi (Thermo-Fisher). The compounds were allowed to incubate with PRMT5/MEP50 for 30 min at 25 degrees Celsius, then a cocktail (10 ul) containing ^3H-SAM was added to initiate the reaction (final volume=51 ul). The final concentrations of the components were as follows: PRMT5/MEP50 was 4 nM, ^3H-SAM was 75 nM, peptide was 40 nM, SAH in the minimum signal control wells was 100 uM, and the DMSO concentration was 1%. The assays were stopped by the addition of non-radioactive SAM (10 ul) to a final concentration of 600 uM, which dilutes the ^3H-SAM to a level where its incorporation into the peptide substrate is no longer detectable. 50 ul of the reaction in the 384-well polypropylene plate was then transferred to a 384-well Flashplate and the biotinylated peptides were allowed to bind to the streptavidin surface for at least 1 hour before being washed three times with 0.1% Tween20 in a Biotek ELx405 plate washer. The plates were then read in a PerkinElmer TopCount plate reader to measure the quantity of ^3H-labeled peptide bound to the Flashplate surface, measured as disintegrations per minute (dpm) or alternatively, referred to as counts per minute (cpm).
where dpm=disintegrations per minute, cmpd=signal in assay well, and min and max are the respective minimum and maximum signal controls.
where top and bottom are the normally allowed to float, but may be fixed at 100 or 0 respectively in a 3-parameter fit.
Regarding `O=C1Cc2ccccc2N1CC(O)CN1CCc2ccccc2C1` (stereo not shown) [Compound C1], the IC50 is 101 to 1000 nM.

Regarding `O=c1cccc(CC(O)CN2CCc3ccccc3C2)[nH]1` (stereo not shown) [Compound C2], the IC50 was in the range of 10000 to 50000 nM.

For the molecule `Cc1cccc(N2CCN(CC(O)CN3CCc4ccccc4C3)C(=O)C2)c1` (stereo not shown) [Compound C3], the IC50 was 10000 to 50000 nM.

Take `O=C1CN(c2cccc3cccnc23)CCN1CC(O)CN1CCc2ccccc2C1` (stereo not shown) [Compound C4]: the IC50 was below 100 nM.

On to `O=C1CN(c2cccc(Cl)c2)CCN1CC(O)CN1CCc2ccccc2C1` (stereo not shown) [Compound C5], for which the IC50 is below 100 nM.

Take `O=C1CN(c2cccc(F)c2)CCN1CC(O)CN1CCc2ccccc2C1` (stereo not shown) [Compound C6]: the IC50 was below 100 nM.

As to `O=C1CN(c2ccc(Cl)cc2)CCN1CC(O)CN1CCc2ccccc2C1` (stereo not shown) [Compound C7], the IC50 is below 100 nM.

With `O=C1CN(c2cncc(N3CCOCC3)c2)CCN1CC(O)CN1CCc2ccccc2C1` (stereo not shown) [Compound C8], the concentration for half-maximal inhibition (IC50) is below 100 nM.

As for `O=C1CN(c2ccccc2Cl)CCN1CC(O)CN1CCc2ccccc2C1` (stereo not shown) [Compound C9], the IC50 was 101 to 1000 nM.

For the molecule `O=C1CN(c2cccc(N3CCOCC3)c2)CCN1CC(O)CN1CCc2ccccc2C1` (stereo not shown) [Compound C12], the 50% inhibitory concentration (IC50) was below 100 nM.

In the case of `Cc1ccc(N2CCN(CC(O)CN3CCc4ccccc4C3)C(=O)C2)cc1` (stereo not shown) [Compound C15], the IC50 is 101 to 1000 nM.

On to `O=C1CC(c2ccccc2)CCN1C[C@H](O)CN1CCc2ccccc2C1` (stereo partly shown) [Compound C16], for which the IC50 fell in the range of 1000 to 10000 nM.

Consider `O=C1CC(c2ccccc2)CCN1C[C@@H](O)CN1CCc2ccccc2C1` (stereo partly shown) [Compound C17], for which the IC50 fell in the range of 1000 to 10000 nM.

As to `O=c1cc(Nc2ccccc2)ccn1C[C@H](O)CN1CCc2ccccc2C1` [Compound C18], the IC50 lay in the range of 1000 to 10000 nM.

In the case of `O=c1cc(Nc2ccccc2)ccn1C[C@H](O)CN1CCc2ccccc2C1` [Compound C19], the IC50 was in the range of 101 to 1000 nM.

For `O=C1CN(c2ccc(CO)cc2)CCN1CC(O)CN1CCc2ccccc2C1` (stereo not shown) [Compound C20], the IC50 lay within 101 to 1000 nM.

As to `CC(=O)N1CCN(CC(O)CN2CCc3ccccc3C2)C(=O)C1` (stereo not shown) [Compound C21], the IC50 lay within 1000 to 10000 nM.

Consider `CS(=O)(=O)N1CCN(CC(O)CN2CCc3ccccc3C2)C(=O)C1` (stereo not shown) [Compound C22], for which the IC50 was 1000 to 10000 nM.

For `O=C1CN(C2CCOCC2)CCN1CC(O)CN1CCc2ccccc2C1` (stereo not shown) [Compound C23], the IC50 was in the range of 1000 to 10000 nM.

Take `O=C1CN(Cc2ccccc2)CCN1CC(O)CN1CCc2ccccc2C1` (stereo not shown) [Compound C24]: the IC50 was in the range of 1000 to 10000 nM.

Consider `O=C1CN(Cc2ccccn2)CCN1CC(O)CN1CCc2ccccc2C1` (stereo not shown) [Compound C25], for which the IC50 was 1000 to 10000 nM.

In the case of `O=C1CN(Cc2cccnc2)CCN1CC(O)CN1CCc2ccccc2C1` (stereo not shown) [Compound C26], the IC50 was 1000 to 10000 nM.

With `CN1CCN(CC(O)CN2CCc3ccccc3C2)C(=O)C1` (stereo not shown) [Compound C27], the IC50 is above 50000 nM.

Take `O=C1COCCN1CC(O)CN1CCc2ccccc2C1` (stereo not shown) [Compound C28]: the IC50 fell in the range of 1000 to 10000 nM.

`CN(C)c1ccccc1N1CCN(C[C@H](O)CN2CCc3ccccc3C2)C(=O)C1` [Compound C29]: the IC50 fell in the range of 101 to 1000 nM.

For the molecule `CN(C)c1ccc(N2CCN(C[C@H](O)CN3CCc4ccccc4C3)C(=O)C2)cc1` [Compound C30], the IC50 lay in the range of 1000 to 10000 nM.

In the case of `O=C1COc2ccccc2N1CC(O)CN1CCc2ccccc2C1` (stereo not shown) [Compound C31], the 50% inhibitory concentration (IC50) lay within 101 to 1000 nM.

In the case of `O=C(NC1CCOCC1)C1CC(=O)N(CC(O)CN2CCc3ccccc3C2)C1` (stereo not shown) [Compound C32], the IC50 is above 10000 nM.

The experiment is the same for the next values; noted with them: Table B-2; PRMT5/MEP50 4 nM, 3H-SAM 75 nM, peptide 40 nM; read-out: Biochemical IC50.
`CC1(C)CC(Nc2cccc(C(=O)NCC(O)CN3CCc4ccccc4C3)c2)CCO1` (stereo not shown) [Compound B53.]: the IC50 is 101 to 1000 nM.

For the molecule `O=C(NCC(O)CN1CCc2ccccc2C1)c1cncc(NC2CCOCC2)c1` (stereo not shown) [Compound B54.], the IC50 is below 100 nM.

Consider `O=C(NCC(O)CN1CCc2ccccc2C1)c1cc(NC2CCOCC2)ccn1` (stereo not shown) [Compound B55.], for which the half-inhibitory concentration (IC50) was below 100 nM.

Consider `COc1cc(NC2CCOCC2)cc(C(=O)NCC(O)CN2CCc3ccccc3C2)c1` (stereo not shown) [Compound B56.], for which the IC50 fell in the range of 101 to 1000 nM.

For the molecule `O=C(NCC(O)CN1CCc2ccccc2C1)c1cc(NC2CCOCC2)ccc1F` (stereo not shown) [Compound B57.], the half-inhibitory concentration (IC50) was in the range of 101 to 1000 nM.

Regarding `O=C(NCC(O)CN1CCc2ccccc2C1)c1ccc(OC2CCOCC2)cc1` (stereo not shown) [Compound B58.], the 50% inhibitory concentration (IC50) is below 100 nM.

The same experiment, now with this note: Table D-2; read-out: Biochemical IC50.
On to `OC(COC1CCCN(c2ccccc2)C1)CN1CCc2ccccc2C1` (stereo not shown) [Compound D2], for which the IC50 lay within 1000 to 10000 nM.

Turning to `OC(COc1ccc(OCC(O)CN2CCc3ccccc3C2)cc1)CN1CCc2ccccc2C1` (stereo not shown) [Compound D3], the IC50 fell in the range of 101 to 1000 nM.

Regarding `OC(COc1cccc(CNC2CCCCC2)c1)CN1CCc2ccccc2C1` (stereo not shown) [Compound D4], the IC50 lay in the range of 101 to 1000 nM.

In the case of `OC(COc1cccc(CNC2CCOCC2)c1)CN1CCc2ccccc2C1` (stereo not shown) [Compound D5], the concentration for half-maximal inhibition (IC50) fell in the range of 101 to 1000 nM.

For `OC(COc1cccc(CNc2cc[nH]n2)c1)CN1CCc2ccccc2C1` (stereo not shown) [Compound D6], the IC50 is 101 to 1000 nM.

Turning to `OC(COc1ccccc1N1CCNCC1)CN1CCc2ccccc2C1` (stereo not shown) [Compound D7], the IC50 was 10000 to 40000 nM.

In the case of `OC(COc1ccccc1C1CCCCC1)CN1CCc2ccccc2C1` (stereo not shown) [Compound D8], the IC50 was in the range of 1000 to 10000 nM.

For the molecule `OC(COc1ccc(Cc2ccccc2)cc1)CN1CCc2ccccc2C1` (stereo not shown) [Compound D10], the IC50 fell in the range of 101 to 1000 nM.

For `OC(COCc1cc(-c2ccc(Cl)cc2)no1)CN1CCc2ccccc2C1` (stereo not shown) [Compound D11], the IC50 fell in the range of 101 to 1000 nM.

On to `OC(COc1cccc(CNC2CCNCC2)c1)CN1CCc2ccccc2C1` (stereo not shown) [Compound D13], for which the IC50 lay in the range of 1000 to 10000 nM.

With `OC(COc1cccc(CN2CCCCC2)c1)CN1CCc2ccccc2C1` (stereo not shown) [Compound D14], the half-maximal inhibitory concentration (IC50) fell in the range of 1000 to 10000 nM.

For `OC(COc1cccc2ccc(N3CCOCC3)nc12)CN1CCc2ccccc2C1` (stereo not shown) [Compound D15], the IC50 was in the range of 1000 to 10000 nM.

Consider `OC(COc1ccccc1-c1ccno1)CN1CCc2ccccc2C1` (stereo not shown) [Compound D16], for which the IC50 was in the range of 1000 to 10000 nM.

Consider `Cc1cc(OCC(O)CN2CCc3ccccc3C2)c(C)cc1CN1CCOCC1` (stereo not shown) [Compound D17], for which the IC50 lay in the range of 101 to 1000 nM.

Turning to `OC(COc1ccc(OCc2ccccc2)cc1)CN1CCc2ccccc2C1` (stereo not shown) [Compound D19], the IC50 is 1000 to 10000 nM.

Take `OC(COc1cccc(OCc2ccccc2)c1)CN1CCc2ccccc2C1` (stereo not shown) [Compound D20]: the IC50 fell in the range of 1000 to 10000 nM.

Consider `OC(COC1CCN(Cc2ccccc2)C1)CN1CCc2ccccc2C1` (stereo not shown) [Compound D35], for which the IC50 lay in the range of 1000 to 10000 nM.

Take `OC(CCc1cccc(CNC2CCCC2)c1)CN1CCc2ccccc2C1` (stereo not shown) [Compound D36]: the IC50 was in the range of 10000 to 40000 nM.

Consider `COc1ccc(Cn2nccc2-c2ccc(OC[C@@H](O)CN3CCc4ccccc4C3)cc2)cc1` [Compound D38], for which the IC50 was above 40000 nM.

For `OC(COc1cccc(-c2cccnc2)c1)CN1CCc2ccccc2C1` (stereo not shown) [Compound D40], the IC50 is 1000 to 10000 nM.

In the case of `Cn1cc(-c2cccc(OCC(O)CN3CCc4ccccc4C3)c2)cn1` (stereo not shown) [Compound D44], the IC50 was 1000 to 10000 nM.

Turning to `OC(COCc1ccc(CN2CCOCC2)cc1)CN1CCc2ccccc2C1` (stereo not shown) [Compound D46], the IC50 is 1000 to 10000 nM.

`OC(COc1ccc(-c2ccn[nH]2)cc1)CN1CCc2ccccc2C1` (stereo not shown) [Compound D48]: the half-inhibitory concentration (IC50) fell in the range of 1000 to 10000 nM.

As for `CC1c2ccccc2CCN1CC(O)COc1cccc(CNC2CCCC2)c1` (stereo not shown) [Compound D50], the IC50 was 1000 to 10000 nM.

A word on the IC50: it is the concentration that inhibits the measured activity by half.
